In paper PMC2254445, “Statistical learning of peptide retention behavior in chromatographic separations: a new kernel-based approach for computational proteomics” (BMC Bioinformatics, 2007):

Assay: Peptide retention time in capillary IP-RP-HPLC with ESI-MS detection
Format: physicochemical
Conditions: vds1 (verified peptides, tryptic digest of protein mixture 1), 50 × 0.2 mm monolithic poly-(styrene/divinylbenzene) column, gradient 0–40% acetonitrile in 0.05% (v/v) aqueous trifluoroacetic acid in 60 min, 55°C, 2 μl/min; for observed retention time: in s (unit assumed); for normalized retention time (NRT): retention times scaled linearly so that TCVADESHAGCEK = 0.1 and MPCTEDYLSLILNR = 0.9
Excerpt: The datasets for training and evaluation of the retention time predictor had to fulfill two basic requirements. First, the identity of the studied peptides had to be known with high certainty in order to avoid incorrect sequence annotations for the training dataset, and second, retention times had to be measured with high reproducibility. Altogether, we measured 19 different proteins, which were purchased from Sigma (St. Louis, MO) or Fluka (Buchs, Switzerland). To avoid excessive overlapping of peptides in the chromatographic separations, the proteins were divided into three artificial protein mixtures and subsequently digested using trypsin (Promega, Madison, WI) using published protocols. The protein mixtures contained the following proteins in concentrations between 0.4 – 3.2 pmol/μl:
Mixture 1: β-casein (bovine milk), conalbumin (chicken egg white), myelin basic protein (bovine), hemoglobin (human), leptin (human), creatine phosphokinase (rabbit muscle), α1-acid-glycoprotein (human plasma), albumin (bovine serum). […]
Adding albumin to each protein mixture was performed because in each run, there had to be an identical set of peptides to normalize the retention times. The resulting peptide mixtures were then separated using capillary IP-RP-HPLC and subsequently identified by electrospray ionization mass spectrometry (ESI-MS) as described in detail in [37, 38]. The separations were carried out in a capillary/nano HPLC system (Model Ultimate 3000, Dionex Benelux, Amsterdam, The Netherlands) using a 50 × 0.2 mm monolithic poly-(styrene/divinylbenzene) column (Dionex Benelux) and a gradient of 0–40% acetonitrile in 0.05% (v/v) aqueous trifluoroacetic acid in 60 min at 55°C. The injection volume was 1 μl, and each digest was analyzed in triplicate at a flow rate of 2 μl/min. On-line ESI-MS detection was carried out with a quadrupole ion-trap mass spectrometer (Model esquire HCT, Bruker Daltonics, Bremen, Germany).
Peptides were identified on the basis of their tandem mass spectra (maximum allowed mass deviations: precursor ions: ± 1.3 Da, fragment ions: ± 0.3 Da) using Mascot (version 2.1.03). The database was the Mass Spectrometry Database, MSDB (version 2005-02-27) restricted to chordata (vertebrates and relatives). We allowed one missed cleavage as well as charges 1+, 2+ and 3+. The mass values were monoisotopic. The significance level of the significance threshold score for the peptide hits was 0.05. Since the amino acid sequences of the 19 proteins of our mixtures are known, we could verify the identifications by sequence comparison with the protein sequences. To avoid random verifications, we restricted the peptide length to be equal or greater than six. The whole process led to two datasets for each protein mixture – one which only contained the verified peptides and the other one with all Mascot identifications. In this paper, we call the datasets containing the verified peptide sequences vds and the datasets with all Mascot identifications ds. The vdss are used to train the predictors and the dss are used to access the classification performance of the identification process.
We chose two standard peptides which were identified in all of the runs. One of these peptides, which had the amino acid sequence TCVADESHAGCEK, eluted very early and the other one, which had the amino acid sequence MPCTEDYLSLILNR, eluted very late. We scaled the retention times linearly so that the early eluting peptide got an NRT of 0.1 and the late eluting peptide an NRT of 0.9. All peptides with an NRT below zero or above 1 were removed. The lists of identified peptides of vds1, vds2 and vds3, together with their respective retention times, are available as Additional files 1, 2 and 3 in the supplementary material.

Substance | observed retention time | normalized retention time (NRT)
CCTESLVNR [verified tryptic peptide, vds1] | 360 | 0.2011
CCTKPESER [verified tryptic peptide, vds1] | 47 | 0.05163
CLDGSR [verified tryptic peptide, vds1] | 169 | 0.1101
DDPHACYSTVFDK [verified tryptic peptide, vds1] | 809 | 0.4159
DDPHACYSTVFDKLK [verified tryptic peptide, vds1] | 1174 | 0.5908
DEYELLCLDGSR [verified tryptic peptide, vds1] | 1144 | 0.5761
DKCEPLEK [verified tryptic peptide, vds1] | 129 | 0.09093
DVCKNYQEAK [verified tryptic peptide, vds1] | 119 | 0.08607
ECCDKPLLEK [verified tryptic peptide, vds1] | 459 | 0.2486
ECCHGDLLECADDR [verified tryptic peptide, vds1] | 700 | 0.364
ECNLAEVPTHAVVVRPEK [verified tryptic peptide, vds1] | 1126 | 0.5677
EQLGEFYEALDCLR [verified tryptic peptide, vds1] | 1723 | 0.8534
EQLGEFYEALDCLRIPK [verified tryptic peptide, vds1] | 1949 | 0.9614
ETYGDMADCCEK [verified tryptic peptide, vds1] | 490 | 0.2635
EYEATLEECCAK [verified tryptic peptide, vds1] | 628 | 0.3297
FFSASCVPGATIEQK [verified tryptic peptide, vds1] | 1189 | 0.5977
GACLLPK [verified tryptic peptide, vds1] | 453 | 0.2458
GTFAALSELHCDK [verified tryptic peptide, vds1] | 1028 | 0.5207
GTFAALSELHCDKLHVDPENFK [verified tryptic peptide, vds1] | 1645 | 0.8158
GYTLPPHCSR [verified tryptic peptide, vds1] | 543 | 0.2886
IQWCAVGK [verified tryptic peptide, vds1] | 727 | 0.3767
KSCHTAVGR [verified tryptic peptide, vds1] | 59 | 0.05729

Substance | observed retention time | normalized retention time (NRT)
LCQLCQGSGGIPPEK [verified tryptic peptide, vds1] | 855 | 0.4382
LFTFHADICTLPDTEK [verified tryptic peptide, vds1] | 1608 | 0.7983
LKPDPNTLCDEFK [verified tryptic peptide, vds1] | 1112 | 0.5611
LRCASIQK [verified tryptic peptide, vds1] | 221 | 0.1348
MPCTEDYLSLILNR [late eluting standard peptide identified in all runs; verified tryptic peptide, vds1] | 1821 | 
NAPYSGYSGAFHCLK [verified tryptic peptide, vds1] | 1104 | 0.5571
NECFLSHKDDSPDLPK [verified tryptic peptide, vds1] | 944 | 0.4804
NLQMDDFELLCTDGR [verified tryptic peptide, vds1] | 1581 | 0.7853
NLQMDDFELLCTDGRR [verified tryptic peptide, vds1] | 1522 | 0.7573
RPCFSALTPDETYVPK [verified tryptic peptide, vds1] | 1337 | 0.6687
SHCIAEVEK [verified tryptic peptide, vds1] | 238 | 0.1429
SLHTLFGDELCK [verified tryptic peptide, vds1] | 1196 | 0.6014
TCNPSDILQMCSFLEGK [verified tryptic peptide, vds1] | 1877 | 0.9271
TCVADESHAGCEK [early eluting standard peptide identified in all runs; verified tryptic peptide, vds1] | 148 | 
TGTCNFDEYFSEGCAPGSPPNSR [verified tryptic peptide, vds1] | 1370 | 0.6845
TSCHTGLGR [verified tryptic peptide, vds1] | 76 | 0.06527
VGGHAAEYGAEALER [verified tryptic peptide, vds1] | 643 | 0.3365
WCTISSPEEK [verified tryptic peptide, vds1] | 697 | 0.3623
WSVVSNGDVECTVVDETK [verified tryptic peptide, vds1] | 1250 | 0.6268
YICDNQDTISSK [verified tryptic peptide, vds1] | 404 | 0.2223
YNGVFQECCQAEDK [verified tryptic peptide, vds1] | 775 | 0.3998
